# Where “and” joins values, the source holds several entries; their conditions need not be identical. Equal values may be shown once.
# How the values were obtained:
# [1] = LC-MS-MS determination of Bitrex in leaf tissue of oilseed rape seedlings; type: in vivo, Brassica napus
# Excerpt: Further experiments on system uptake of Bitrex have been conducted also on oilseed rape (Brassica napus). Seeds of Brassica napus have been treated with concentration of Bitrex from 0.15 g/unit to 75 g/unit. Seeds have been sown and leaf samples have been taken 6 days after emergence and 22 days after emergence. By means of Liquid Chromatography with tandem mass spectrometry (LC-MS-MS) as described above Bitrex amount in leaf tissue has been determined with 4 repetition per Bitrex concentration. Leave samples have been prepared as follows: Leaf material has been harvested, cut in small pieces and put in 3-5 ml ethanol. After 45 min vortexing, centrifuging and taking aliquot of 1 ml for further analysis.
# [2] = tested on: corn seeds; test: Phytotoxicity: germination rate (KF) of treated corn seeds; settings: for ΔKF: vs no Bitrex
# Description: In order to evaluate the phytotoxicity of different corn seed treatments, safety tests were conducted. Germination rates of corn seeds treated with various concentrations of denatonium benzoate (Bitrex®) [in g per unit, where 1 unit is 50.000 seeds] were counted after five days at 25° C. Cold test germination rates (CT) were counted after 7 days at 10° C. and 5 days at 25° C. The treatments were compared to untreated seeds.
# KF=germination rates counted after 5 days at 25° C. and CT=cold test germination rates counted after 7 days at 10° C. and 5 days at 25° C.
# [3] = tested on: maize plants; test: Wireworm field trial in Italy: phytotoxicity (PHYGEN) and vigor (VIGOR); settings: for PHYGEN phytotoxicity, stage E: at emergence; for VIGOR, stage E / VIGOR, stage V3 / VIGOR, stage V5: ratings from 1-10 (10 is best)
# Excerpt: Evaluation took place at emergence (E), at V3 stage (=3 leaves unfolded) and at V5 stage (=5 leaves unfolded). The following characteristics have been phenotyped: phytotoxicity (PHYGEN) at stage E, V3 and V5 in % per plot, vigor (VIGOR) at stage E, V3 and V5 in ratings from 1-10 (10 is best), insect damage (DAMINS) at stage V5 in plants per row (left DAMINS column in Table 7) and in % per row (right DAMINS column in Table 7).
# [4] = corn Amavit, chemical no, Bitrex 0.2 g/u
# [5] = corn Amavit, chemical no, Bitrex 0.5 g/u
# [6] = corn Amavit, chemical no, Bitrex 1.0 g/u
# [7] = corn Amavit, chemical no, Bitrex 2.0 g/u
# [8] = corn Amavit, chemical no, Bitrex 5.0 g/u
# [9] = corn Amavit, with MaximXL, Bitrex 0.2 g/u
# [10] = corn Amavit, with MaximXL, Bitrex 0.5 g/u
# [11] = corn Amavit, with MaximXL, Bitrex 1.0 g/u
# [12] = corn Amavit, with MaximXL, Bitrex 2.0 g/u
# [13] = corn Amavit, with MaximXL, Bitrex 5.0 g/u
# [14] = corn Amavit, with RedigoM, Bitrex 0.2 g/u
# [15] = corn Amavit, with RedigoM, Bitrex 0.5 g/u
# [16] = corn Amavit, with RedigoM, Bitrex 1.0 g/u
# [17] = corn Amavit, with RedigoM, Bitrex 2.0 g/u
# [18] = corn Amavit, with RedigoM, Bitrex 5.0 g/u
# [19] = corn KXB6432, chemical no, Bitrex 0.2 g/u
# [20] = corn KXB6432, chemical no, Bitrex 0.5 g/u
# [21] = corn KXB6432, chemical no, Bitrex 1.0 g/u
# [22] = corn KXB6432, chemical no, Bitrex 2.0 g/u
# [23] = corn KXB6432, chemical no, Bitrex 5.0 g/u
# [24] = corn KXB6432, with MaximXL, Bitrex 0.2 g/u
# [25] = corn KXB6432, with MaximXL, Bitrex 0.5 g/u
# [26] = corn KXB6432, with MaximXL, Bitrex 1.0 g/u
# [27] = corn KXB6432, with MaximXL, Bitrex 2.0 g/u
# [28] = corn KXB6432, with MaximXL, Bitrex 5.0 g/u
# [29] = corn KXB6432, with RedigoM, Bitrex 0.2 g/u
# [30] = corn KXB6432, with RedigoM, Bitrex 0.5 g/u
# [31] = corn KXB6432, with RedigoM, Bitrex 1.0 g/u
# [32] = corn KXB6432, with RedigoM, Bitrex 2.0 g/u
# [33] = corn KXB6432, with RedigoM, Bitrex 5.0 g/u
# [34] = ø of varieties and chemicals, Bitrex 0.2 g/u
# [35] = ø of varieties and chemicals, Bitrex 0.5 g/u
# [36] = ø of varieties and chemicals, Bitrex 1.0 g/u
# [37] = ø of varieties and chemicals, Bitrex 2.0 g/u
# [38] = ø of varieties and chemicals, Bitrex 5.0 g/u
# [39] = ø of varieties, chemical no, Bitrex 0.2 g/u
# [40] = ø of varieties, chemical no, Bitrex 0.5 g/u
# [41] = ø of varieties, chemical no, Bitrex 1.0 g/u
# [42] = ø of varieties, chemical no, Bitrex 2.0 g/u
# [43] = ø of varieties, chemical no, Bitrex 5.0 g/u
# [44] = ø of varieties, with MaximXL, Bitrex 0.2 g/u
# [45] = ø of varieties, with MaximXL, Bitrex 0.5 g/u
# [46] = ø of varieties, with MaximXL, Bitrex 1.0 g/u
# [47] = ø of varieties, with MaximXL, Bitrex 2.0 g/u
# [48] = ø of varieties, with MaximXL, Bitrex 5.0 g/u
# [49] = ø of varieties, with RedigoM, Bitrex 0.2 g/u
# [50] = ø of varieties, with RedigoM, Bitrex 0.5 g/u
# [51] = ø of varieties, with RedigoM, Bitrex 1.0 g/u
# [52] = ø of varieties, with RedigoM, Bitrex 2.0 g/u
# [53] = ø of varieties, with RedigoM, Bitrex 5.0 g/u
smiles,measurement,setting,value
"CC[N+](CC)(CC(=O)Nc1c(C)cccc1C)Cc1ccccc1.O=C([O-])c1ccccc1 [Bitrex, N-Benzyl-2-(2,6-dimethylanilino)-N, N-diethyl-2-oxoethan-1-aminium benzoate]",Bitrex concentation 22 days after emergence,"[1]; oilseed rape leaf, Bitrex 0.15 g/unit, repetitions 1-4",11.03 ng/g and 10.65 ng/g and 5.58 ng/g and 7.75 ng/g
same,Bitrex concentation 6 days after emergence,"[1]; oilseed rape leaf, Bitrex 7.5 g/unit, repetitions 1-4",354.65 ng/g and 194.60 ng/g and 266.85 ng/g and 251.41 ng/g
same,Bitrex in leaf tissue after 22 days,"[1]; oilseed rape, all applications 0.15-75 g/unit",still detectable but at a low amount
same,"KF germination rate, 5 days at 25° C.",[2]; [4],98.0%
same,"KF germination rate, 5 days at 25° C.",[2]; [5],96.5%
same,"KF germination rate, 5 days at 25° C.",[2]; [6],97.5%
same,"KF germination rate, 5 days at 25° C.",[2]; [7],97.0%
same,"KF germination rate, 5 days at 25° C.",[2]; [8],98.0%
same,"KF germination rate, 5 days at 25° C.",[2]; [9],98.0%
same,"KF germination rate, 5 days at 25° C.",[2]; [10],98.0%
same,"KF germination rate, 5 days at 25° C.",[2]; [11],96.5%
same,"KF germination rate, 5 days at 25° C.",[2]; [12],95.5%
same,"KF germination rate, 5 days at 25° C.",[2]; [13],97.5%
same,"KF germination rate, 5 days at 25° C.",[2]; [14],100.0%
same,"KF germination rate, 5 days at 25° C.",[2]; [15],97.5%
same,"KF germination rate, 5 days at 25° C.",[2]; [16],96.0%
same,"KF germination rate, 5 days at 25° C.",[2]; [17],96.5%
same,"KF germination rate, 5 days at 25° C.",[2]; [18],99.5%
same,"KF germination rate, 5 days at 25° C.",[2]; [19],92.5%
same,"KF germination rate, 5 days at 25° C.",[2]; [20],96.5%
same,"KF germination rate, 5 days at 25° C.",[2]; [21],96.5%
same,"KF germination rate, 5 days at 25° C.",[2]; [22],96.0%
same,"KF germination rate, 5 days at 25° C.",[2]; [23],95.5%
same,"KF germination rate, 5 days at 25° C.",[2]; [24],98.5%
same,"KF germination rate, 5 days at 25° C.",[2]; [25],99.0%
same,"KF germination rate, 5 days at 25° C.",[2]; [26],97.5%
same,"KF germination rate, 5 days at 25° C.",[2]; [27],98.0%
same,"KF germination rate, 5 days at 25° C.",[2]; [28],97.5%
same,"KF germination rate, 5 days at 25° C.",[2]; [29],94.5%
same,"KF germination rate, 5 days at 25° C.",[2]; [30],95.5%
same,"KF germination rate, 5 days at 25° C.",[2]; [31],96.0%
same,"KF germination rate, 5 days at 25° C.",[2]; [32],95.5%
same,"KF germination rate, 5 days at 25° C.",[2]; [33],97.0%
same,ΔKF,[2]; [4],0.0%
same,ΔKF,[2]; [5],−1.5%
same,ΔKF,[2]; [6],−0.5%
same,ΔKF,[2]; [7],−1.0%
same,ΔKF,[2]; [8],0.0%
same,ΔKF,[2]; [9],1.5%
same,ΔKF,[2]; [10],1.5%
same,ΔKF,[2]; [11],0.0%
same,ΔKF,[2]; [12],−1.0%
same,ΔKF,[2]; [13],1.0%
same,ΔKF,[2]; [14],2.0%
same,ΔKF,[2]; [15],−0.5%
same,ΔKF,[2]; [16],−2.0%
same,ΔKF,[2]; [17],−1.5%
same,ΔKF,[2]; [18],1.5%
same,ΔKF,[2]; [19],−2.0%
same,ΔKF,[2]; [20],2.0%
same,ΔKF,[2]; [21],2.0%
same,ΔKF,[2]; [22],1.5%
same,ΔKF,[2]; [23],1.0%
same,ΔKF,[2]; [24],0.0%
same,ΔKF,[2]; [25],0.5%
same,ΔKF,[2]; [26],−1.0%
same,ΔKF,[2]; [27],−0.5%
same,ΔKF,[2]; [28],−1.0%
same,ΔKF,[2]; [29],0.0%
same,ΔKF,[2]; [30],1.0%
same,ΔKF,[2]; [31],1.5%
same,ΔKF,[2]; [32],1.0%
same,ΔKF,[2]; [33],2.5%
same,ΔKF,[2]; [34],0.3%
same,ΔKF,[2]; [35],0.5%
same,ΔKF,[2]; [36],0.0%
same,ΔKF,[2]; [37],−0.2%
same,ΔKF,[2]; [38],0.8%
same,ΔKF,[2]; [39],−1.0%
same,ΔKF,[2]; [40],0.3%
same,ΔKF,[2]; [41],0.8%
same,ΔKF,[2]; [42],0.3%
same,ΔKF,[2]; [43],0.5%
same,ΔKF,[2]; [44],0.7%
same,ΔKF,[2]; [45],1.0%
same,ΔKF,[2]; [46],−0.5%
same,ΔKF,[2]; [47],−0.7%
same,ΔKF,[2]; [48],0.0%
same,ΔKF,[2]; [49],1.0%
same,ΔKF,[2]; [50],0.3%
same,ΔKF,[2]; [51],−0.2%
same,ΔKF,[2]; [52],−0.2%
same,ΔKF,[2]; [53],2.0%
same,"KF germination rate, 5 days at 25° C.",[2]; [34],96.9%
same,"KF germination rate, 5 days at 25° C.",[2]; [35],97.2%
same,"KF germination rate, 5 days at 25° C.",[2]; [36],96.7%
same,"KF germination rate, 5 days at 25° C.",[2]; [37],96.4%
same,"KF germination rate, 5 days at 25° C.",[2]; [38],97.5%
same,"KF germination rate, 5 days at 25° C.",[2]; [39],95.3%
same,"KF germination rate, 5 days at 25° C.",[2]; [40],96.5%
same,"KF germination rate, 5 days at 25° C.",[2]; [41],97.0%
same,"KF germination rate, 5 days at 25° C.",[2]; [42],96.5%
same,"KF germination rate, 5 days at 25° C.",[2]; [43],96.8%
same,"KF germination rate, 5 days at 25° C.",[2]; [44],98.3%
same,"KF germination rate, 5 days at 25° C.",[2]; [45],98.5%
same,"KF germination rate, 5 days at 25° C.",[2]; [46],97.0%
same,"KF germination rate, 5 days at 25° C.",[2]; [47],96.8%
same,"KF germination rate, 5 days at 25° C.",[2]; [48],97.5%
same,"KF germination rate, 5 days at 25° C.",[2]; [49],97.3%
same,"KF germination rate, 5 days at 25° C.",[2]; [50],96.5%
same,"KF germination rate, 5 days at 25° C.",[2]; [51],96.0%
same,"KF germination rate, 5 days at 25° C.",[2]; [52],96.0%
same,"KF germination rate, 5 days at 25° C.",[2]; [53],98.3%
same,"PHYGEN phytotoxicity, stage V3","[3]; 5 g Bitrex per 50,000 seeds",0 % per plot
same,"PHYGEN phytotoxicity, stage V5","[3]; 5 g Bitrex per 50,000 seeds",0 % per plot
same,"PHYGEN phytotoxicity, stage E","[3]; 5 g Bitrex per 50,000 seeds",0 % per plot
same,"VIGOR, stage E","[3]; 5 g Bitrex per 50,000 seeds",10
same,"VIGOR, stage V3","[3]; 5 g Bitrex per 50,000 seeds",10
same,"VIGOR, stage V5","[3]; 5 g Bitrex per 50,000 seeds",10
same,"PHYGEN phytotoxicity, stage V3","[3]; 10 g Bitrex per 50,000 seeds",0 % per plot
same,"PHYGEN phytotoxicity, stage V5","[3]; 10 g Bitrex per 50,000 seeds",0 % per plot
same,"PHYGEN phytotoxicity, stage E","[3]; 10 g Bitrex per 50,000 seeds",0 % per plot
same,"VIGOR, stage E","[3]; 10 g Bitrex per 50,000 seeds",10
same,"VIGOR, stage V3","[3]; 10 g Bitrex per 50,000 seeds",10
same,"VIGOR, stage V5","[3]; 10 g Bitrex per 50,000 seeds",10
same,"PHYGEN phytotoxicity, stage V3","[3]; 20 g Bitrex per 50,000 seeds",0 % per plot
same,"PHYGEN phytotoxicity, stage V5","[3]; 20 g Bitrex per 50,000 seeds",0 % per plot
same,"PHYGEN phytotoxicity, stage E","[3]; 20 g Bitrex per 50,000 seeds",0 % per plot
same,"VIGOR, stage E","[3]; 20 g Bitrex per 50,000 seeds",10
same,"VIGOR, stage V3","[3]; 20 g Bitrex per 50,000 seeds",10
same,"VIGOR, stage V5","[3]; 20 g Bitrex per 50,000 seeds",10
same,negative effect on plant vitality with respect to phytotoxicity and plant vigor,"[3]; Bitrex applied at high concentration (5-20 g per 50,000 seeds), field trial",has not been observed
